The values below come from EPA's ToxRefDB 2.

In series [1] the test system is rat. The conditions noted are these: Developmental neurotoxicity study; sprague dawley; Oral; [Not Specified]; dose end: 87 PND; group: cannot be grouped; systemic / in life observation / clinical signs / abnormal posture.
Series [2] has as its system rat. The settings on record: Developmental neurotoxicity study, sprague dawley, Oral, Feed, dose end: 72 PND, group: cannot be grouped.
Series [3] relates to rat. The settings on record: Subchronic oral toxicity in rodents, other, Feed, dose end: 90 day, group: systemic.
For series [4], the system named is mouse. The settings on record: Combined chronic toxicity/carcinogenicity; b6c3f1; Oral; Feed; dose end: 107 week; group: systemic; systemic / pathology microscopic / liver / hepatocyte, multinucleate.
Series [5] concerns mouse. The settings on record: Developmental neurotoxicity study; other; Oral; Feed; dose end: 77 PND; group: cannot be grouped; systemic / pathology microscopic / brain / [other] + systemic / pathology microscopic / brain / depletion.
Series [6] deals with rat. The conditions noted are these: Multigenerational reproductive toxicity study, sprague dawley, Oral, Feed, dose end: 3 generation.
Series [7] deals with mouse. The conditions noted are these: Carcinogenicity; b6c3f1; Oral; Feed; dose end: 80 week; group: systemic; systemic / pathology microscopic / liver / hepatocellular carcinoma + systemic / in life observation / clinical signs / alopecia + systemic….
Series [8] relates to rat. The settings on record: Carcinogenicity, other, Oral, Feed, dose end: 80 week, group: systemic.
For series [9], the system named is rat. The conditions noted are these: Subchronic oral toxicity in rodents, wistar, Feed, dose end: 90 day, group: systemic, systemic / clinical chemistry / urea nitrogen / urea + systemic / hematology / blood clotting / blood clotting - clotting time + systemic / ….
The subject of series [10] is rabbit. The settings on record: Prenatal developmental toxicity study, new zealand white, Oral, Gavage/Intubation, dose end: 19 GD.
Series [11] concerns rat. The settings on record: Carcinogenicity; fischer; Oral; Feed; dose end: 104 week; group: systemic; systemic / pathology microscopic / liver / hypertrophy + systemic / pathology microscopic / liver / vacuolization cytoplasmic + systemic / ….
The test system of series [12] is rat. The conditions noted are these: Subchronic oral toxicity in rodents, fischer, Feed, dose end: 14 week, group: systemic, systemic / organ weight / liver / absolute + systemic / organ weight / liver / relative to body weight + systemic / hematology / platelet / ….
Series [13] has as its system rat. The settings on record: Developmental neurotoxicity study; sprague dawley; Oral; Gavage/Intubation; dose end: 91 PND; group: cannot be grouped; systemic / in life observation / body weight / offspring (pup) weight.
In series [14] the test system is mouse. The conditions noted are these: Subchronic oral toxicity in rodents, b6c3f1, Feed, dose end: 14 week.
For series [15], the system named is mouse. The conditions noted are these: Carcinogenicity; b6c3f1; Oral; Feed; dose end: 105 week; group: systemic; systemic / pathology microscopic / liver / eosinophilic focus + systemic / pathology microscopic / liver / hypertrophy + systemic / ….
Series [16] has as its system rat. The conditions noted are these: Combined chronic toxicity/carcinogenicity; fischer; Oral; Feed; dose end: 2 year; group: systemic; systemic / clinical chemistry / alkaline phosphatase (alp/alk) / alkaline phosphatase (alp/alk) + systemic / clinical chemistry / globulins….
Series [17] deals with mouse. The conditions noted are these: Carcinogenicity, b6c3f1, Oral, Feed, dose end: 18 month, group: systemic.
Series [18] relates to rat. The conditions noted are these: Multigenerational reproductive toxicity study, sprague dawley, Oral, Feed, dose end: 2 generation.
Series [19] concerns rat. The settings on record: Prenatal developmental toxicity study, sprague dawley, Oral, Gavage/Intubation, dose end: 19 GD.
Setting [20] is: systemic / in life observation / body weight / body weight + systemic / in life observation / body weight / body weight gain + systemic / in….
[21] abbreviates: systemic / in life observation / food consumption / food consumption.
The mark [22] stands for this setting: systemic / in life observation / food consumption / food consumption + systemic / in life observation / body weight / body weight.
The mark [23] stands for this setting: group: offspring, developmental / developmental landmark / vaginal opening / vaginal opening + systemic / in life observation / body weight / offspring (pup) ….
[24] abbreviates: group: parental, systemic / in life observation / body weight / body weight + systemic / in life observation / body weight / body weight gain + systemic / ….
[25] abbreviates: group: reproductive, reproductive / reproductive performance / implantations / implantations + reproductive / offspring survival early / litter size / litter ….
Setting [26] is: systemic / in life observation / body weight / body weight + systemic / in life observation / clinical signs / fur (altered appearance) + ….
Where [27] appears, read: systemic / in life observation / clinical signs / fur (altered appearance) + systemic / in life observation / clinical signs / palpable mass….
The mark [28] stands for this setting: group: developmental, systemic / in life observation / body weight / fetal weight.
[29] abbreviates: group: maternal, systemic / in life observation / mortality / mortality + reproductive / reproductive performance / aborted / aborted + systemic / in life ….
[30] abbreviates: group: maternal, reproductive / reproductive performance / estrous cycle / length.
The mark [31] stands for this setting: group: systemic, systemic / in life observation / clinical signs / ataxia + systemic / in life observation / clinical signs / lethargy + systemic / in life ….
[32] abbreviates: systemic / organ weight / liver / absolute + systemic / in life observation / body weight / body weight.
Setting [33] is: systemic / organ weight / liver / absolute + systemic / in life observation / body weight / body weight + systemic / organ weight / liver / ….
Where [34] appears, read: group: offspring, developmental / offspring survival late / viability index / viability index + systemic / pathology microscopic / kidney / dilatation.
Where [35] appears, read: group: offspring, developmental / offspring survival late / viability index / viability index + systemic / pathology microscopic / kidney / dilatation + ….
Where [36] appears, read: group: parental, systemic / pathology microscopic / kidney / dilatation + systemic / in life observation / body weight / body weight + systemic / in life ….
Where [37] appears, read: group: developmental, developmental / developmental malformation / bone / incomplete ossification + developmental / developmental malformation / brain / dilated ….
Where [38] appears, read: group: maternal, systemic / in life observation / clinical signs / piloerection + systemic / in life observation / clinical signs / salivation.
Where [39] appears, read: group: maternal, systemic / in life observation / clinical signs / piloerection + systemic / in life observation / clinical signs / salivation + reproductive….

As to `CC(C)(c1ccc(O)cc1)c1ccc(O)cc1` [Bisphenol A], the LEL in [1] is 0.04 mg/kg/day; in series [2] (setting [20]), 56.4 mg/kg/day; in series [3] (setting [21]) it was 5 mg/kg/day; in series [4], 150 mg/kg/day; in [5], 0.03 mg/kg/day; in series [6] (setting [23]) it was 500 mg/kg/day. In addition, the LEL in series [6] (group: parental, systemic / in life observation / body weight / body weight + systemic / in life observation / body weight / body weight gain) stood at 50 mg/kg/day; in series [6] (setting [25]) it was 500 mg/kg/day. The LOAEL in [1] is over 0.4 mg/kg/day; in series [2] (systemic / in life observation / body weight / body weight + systemic / in life observation / body weight / body weight gain) it was 56.4 mg/kg/day; in [3] (setting [22]) it was over 25 mg/kg/day; in series [4], over 750 mg/kg/day; in series [5], over 2000 mg/kg/day; in series [6] (setting [23]), over 500 mg/kg/day. The lowest observed adverse effect level (LOAEL) in series [6] (setting [24]) and in series [6] (setting [25]) was over 500 mg/kg/day in each case. Further, the NEL in series [1] is under 0.04 mg/kg/day; in [2] (setting [20]) it was 5.85 mg/kg/day; in series [3] (setting [21]), under 5 mg/kg/day; in series [4], under 150 mg/kg/day; in [5] it was under 0.03 mg/kg/day; in series [6] (setting [23]) it was 50 mg/kg/day. The NEL in series [6] (setting [24]) was 5 mg/kg/day; in series [6] (group: reproductive, reproductive / reproductive performance / implantations / implantations), 50 mg/kg/day. Also, the NOAEL was at least 0.4 mg/kg/day in series [1]; 5.85 mg/kg/day in series [2] (setting [20]); at least 25 mg/kg/day in [3] (setting [22]); at least 750 mg/kg/day in series [4]; at least 2000 mg/kg/day in series [5]; at least 500 mg/kg/day in [6] (setting [23]). Besides, the NOAEL in series [6] (setting [24]) and in [6] (setting [25]) was at least 500 mg/kg/day throughout.

With `ClC1=C(Cl)[C@]2(Cl)C3C(Cl)C(Cl)CC3[C@@]1(Cl)C2(Cl)Cl` (stereo not given in full) [Chlordane], in [7], the LEL turned out to be 4.49 mg/kg/day, the LOAEL was over 8.43 mg/kg/day, the NEL was under 4.49 mg/kg/day and the NOAEL was at least 8.43 mg/kg/day. Further, in [8] (setting [26]), the lowest observed adverse effect level (LOAEL) is over 12.1 mg/kg/day and the no-observed-adverse-effect level (NOAEL) is at least 12.1 mg/kg/day. For the same molecule, in series [8] (setting [27]), the LEL turned out to be 6.04 mg/kg/day and the NEL was under 6.04 mg/kg/day.

Regarding `NC(=O)c1c(Cl)cccc1Cl` [2,6-Dichlorobenzamide], the LEL in series [9] was found to be 49 mg/kg/day; in series [10] (setting [28]), 90 mg/kg/day; in [10] (group: maternal, systemic / in life observation / mortality / mortality + systemic / in life observation / clinical signs / moribundity), 30 mg/kg/day. The LOAEL in series [9] came to 49 mg/kg/day; in series [10] (setting [28]), 90 mg/kg/day; in [10] (group: maternal, systemic / in life observation / mortality / mortality) it was 30 mg/kg/day. Moreover, the figures for the NEL in series [9], in series [10] (setting [28]) and in series [10] (setting [29]) were 14 mg/kg/day, 30 mg/kg/day and 10 mg/kg/day, respectively. For the same molecule, the values for the NOAEL in [9], in series [10] (setting [28]) and in [10] (setting [29]) were 14 mg/kg/day, 30 mg/kg/day and 10 mg/kg/day, respectively.

Regarding `CCC1(c2ccccc2)C(=O)NCNC1=O` [Primidone], the LEL in series [11] was 25 mg/kg/day; in [12] it was 20 mg/kg/day; in series [13], 40 mg/kg/day; in series [14] (setting [30]), 220 mg/kg/day; in [14] (group: systemic, systemic / organ weight / liver / absolute + systemic / organ weight / liver / relative to body weight + systemic / pathology microscopic / …), 100 mg/kg/day; in [15] it was 25 mg/kg/day. Further, the lowest-observed-adverse-effect level (LOAEL) was 25 mg/kg/day in [11]; over 400 mg/kg/day in [12]; over 80 mg/kg/day in [13]; over 1100 mg/kg/day in [14] (setting [30]); over 1000 mg/kg/day in [14] (setting [31]); 25 mg/kg/day in series [15]. Besides, the NEL in series [11] is under 25 mg/kg/day; in [12] it was under 20 mg/kg/day; in series [13], under 40 mg/kg/day; in series [14] (setting [30]), 120 mg/kg/day; in [14] (setting [31]) it was 50 mg/kg/day; in series [15], under 25 mg/kg/day. The NOAEL in series [11] is under 25 mg/kg/day; in series [12] it was at least 400 mg/kg/day; in series [13] it was at least 80 mg/kg/day; in [14] (setting [30]), at least 1100 mg/kg/day; in [14] (setting [31]) it was at least 1000 mg/kg/day; in series [15], under 25 mg/kg/day.

In the case of `O=C([O-])c1cc(Oc2ccc(C(F)(F)F)cc2Cl)ccc1[N+](=O)[O-].[Na+]` [Acifluorfen-sodium], the LEL in series [16] is 125 mg/kg/day; in [17] (setting [33]), 119 mg/kg/day; in series [18] (setting [34]) it was 50 mg/kg/day; in series [18] (group: parental, systemic / pathology microscopic / kidney / dilatation + systemic / in life observation / body weight / body weight gain) it was 50 mg/kg/day; in [19] (setting [37]), 90 mg/kg/day; in [19] (setting [38]), 90 mg/kg/day. The LOAEL in series [16] turned out to be 125 mg/kg/day; in [17] (setting [32]), 119 mg/kg/day; in [18] (setting [34]), 50 mg/kg/day; in series [18] (group: parental, systemic / pathology microscopic / kidney / dilatation), 50 mg/kg/day; in series [19] (setting [37]) it was 90 mg/kg/day; in [19] (setting [38]), 90 mg/kg/day. Besides, the NEL is 25 mg/kg/day in [16]; under 119 mg/kg/day in series [17] (setting [33]); 2.5 mg/kg/day in series [18] (setting [35]); 2.5 mg/kg/day in series [18] (setting [36]); 20 mg/kg/day in series [19] (setting [37]); 20 mg/kg/day in series [19] (setting [39]). Further, the NOAEL in series [16] was 25 mg/kg/day; in series [17] (setting [32]), under 119 mg/kg/day; in series [18] (setting [35]) it was 2.5 mg/kg/day; in [18] (setting [36]), 2.5 mg/kg/day; in series [19] (setting [37]), 20 mg/kg/day; in series [19] (setting [39]), 20 mg/kg/day.

In general, LOAEL refers to the lowest tested level that showed an adverse finding. A word on the NOAEL: it is the highest tested level that showed no adverse finding.
